Like-named read-outs stand apart in the source and are kept apart here. Numbered stars: 1 amine (or outer) side, 2 acyl side, 3 side chain; on linkers, the order of the positions; unused ones are H or OH. Square brackets hold non-standard residues; d marks the D form. Peptide text beside a SMILES is read from it. X1 = CO[C@H]1O[C@H](C(=O)[*:2])[C@@H](O)[C@H](O)[C@H]1N[*:1]; 2Furoyl(5-aminomethyl) = O=C(c1ccc(CN[*:1])o1)[*:2]; Aib = CC(C)(N)C(=O)O
Assays:
[1] = biological target: T1, DPP-IV (Homo sapiens, UniProt P27487); test: DPP-IV resistant assay; format: in vitro ADME
T1 construct: purchased Sigma-Aldrich
Experimental: 20 μM of peptides of the present invention (Sequence IDs—01, 02, 03, 04, 05, 06, 11, 12 and 13) were incubated with 60 mU/2 ml of DPP-IV (Sigma-Aldrich) enzyme at room temperature (22-24° C.) in 20 mM Tris HCl buffer, pH 8.0. The aliquots were analyzed for the amount of undegraded peptide concentration at different time intervals by RP-HPLC. The peak area integration was used to determine the amount of undegraded peptide (U.S. Pat. No. 7,067,488). T1/2 of each peptide was determined from the graph plotted between peak area of undegraded peptide vs. time. The peak area of DPP-IV untreated peptide in above mentioned buffer condition of same concentration was considered as time zero. […]

[2] = biological target: T2, NEP 24.11 (Homo sapiens, UniProt P08473); test: NEP 24.11 resistant (degradation) assay; format: in vitro ADME; conditions: for half-life at 20 μM: buffer
T2 construct: purchased Calbiochem
Experimental: The aliquots were analyzed for the amount of undegraded peptide concentration at different time intervals using RP-HPLC by peak area integration. T1/2 of each peptide was determined from the graph plotted between peak area of undegraded peptide vs time.

[3] = biological target: T3, GLP-1R (Homo sapiens, UniProt P43220); test: In vitro receptor functional assay (cAMP) in CHO/GLP-1R cells; format: cell-based; conditions: intracellular cAMP, 30 min with 1 mM IBMX
T3 construct: expressed in transfected cells; host or cells: CHO/GLP-1R cells
Excerpt: cAMP is a ubiquitous cellular second messenger that is critical component of a signal transduction pathway linking membrane receptors and their ligands to the activation of internal cellular enzymatic activity and gene expression. cAMP is synthesized from ATP by membrane bound adenylate cyclase in a very regulated manner. In its simpler form, binding of a ligand, such as hormone or drug, to its specific G protein coupled receptor can either stimulate or inhibit adenylate cyclase depending on the GPCR being activated. […] Therefore the relative concentration of cAMP serves as a means to monitor the activity of GPCRs at the cell surface.
CHO/GLP-1R Cell Culture—CHO/GLP-1R Cells were maintained in Ham's F-12 medium containing 10% Fetal bovine serum and 1% penicillin-streptomycin antibiotic solution at 37° C. in a 5% CO2 incubator.
Cells were washed twice with PBS (pH-7.2) and incubated with 100 μl Ham's F-12 serum free medium supplemented with 0.1% BSA for 2 hr at 37° C. in 5% CO2 incubator. Cells were then incubated in 100 μl Ham's F-12 serum free medium supplemented with 0.1% BSA with 1 mM IBMX in the presence as well as absence of the peptides as per present invention in different concentration (10 nM, 1 nM, 100 pM & 10 pM). The reaction was stopped 30 min later by washing the intact cells three times with ice cold PBS (pH-7.2). The intracellular cAMP was extracted by incubating the cells in 100 μl 0.1N HCl at room temperature for 20 minutes. Mixture was dissociated by pipetting up and down until the suspension became homogenous, transferred to centrifuge tube and centrifuged at 800 rpm for 10 minutes.
Dissolved 5 pNPP tablets in 25 ml DEA buffer. Wells were emptied and washed five times with wash buffer and added 200 μl pNPP solution to each well, plate was covered and allowed to develop in dark for 90 minutes.

T1 sequence (P27487 whole entry, species assumed): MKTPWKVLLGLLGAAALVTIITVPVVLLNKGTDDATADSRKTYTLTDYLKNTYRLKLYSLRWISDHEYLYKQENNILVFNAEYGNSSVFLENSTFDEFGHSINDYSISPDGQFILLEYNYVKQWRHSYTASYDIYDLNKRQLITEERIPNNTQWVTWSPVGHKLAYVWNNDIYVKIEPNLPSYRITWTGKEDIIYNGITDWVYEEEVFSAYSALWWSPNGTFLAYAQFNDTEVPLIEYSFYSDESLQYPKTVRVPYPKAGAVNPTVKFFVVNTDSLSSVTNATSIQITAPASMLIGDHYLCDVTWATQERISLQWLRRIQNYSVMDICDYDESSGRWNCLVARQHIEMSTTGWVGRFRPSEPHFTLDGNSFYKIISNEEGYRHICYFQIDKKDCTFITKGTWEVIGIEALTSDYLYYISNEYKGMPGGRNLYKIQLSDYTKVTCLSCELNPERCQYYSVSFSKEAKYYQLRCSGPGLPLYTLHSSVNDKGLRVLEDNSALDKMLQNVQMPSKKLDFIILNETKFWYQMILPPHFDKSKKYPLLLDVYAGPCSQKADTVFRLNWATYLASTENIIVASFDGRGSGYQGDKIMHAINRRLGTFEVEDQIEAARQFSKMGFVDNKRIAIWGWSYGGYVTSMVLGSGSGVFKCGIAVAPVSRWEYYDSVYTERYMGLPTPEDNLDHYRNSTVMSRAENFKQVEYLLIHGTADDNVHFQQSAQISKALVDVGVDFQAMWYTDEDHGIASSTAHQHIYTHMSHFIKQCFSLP
T2 sequence (P08473 whole entry): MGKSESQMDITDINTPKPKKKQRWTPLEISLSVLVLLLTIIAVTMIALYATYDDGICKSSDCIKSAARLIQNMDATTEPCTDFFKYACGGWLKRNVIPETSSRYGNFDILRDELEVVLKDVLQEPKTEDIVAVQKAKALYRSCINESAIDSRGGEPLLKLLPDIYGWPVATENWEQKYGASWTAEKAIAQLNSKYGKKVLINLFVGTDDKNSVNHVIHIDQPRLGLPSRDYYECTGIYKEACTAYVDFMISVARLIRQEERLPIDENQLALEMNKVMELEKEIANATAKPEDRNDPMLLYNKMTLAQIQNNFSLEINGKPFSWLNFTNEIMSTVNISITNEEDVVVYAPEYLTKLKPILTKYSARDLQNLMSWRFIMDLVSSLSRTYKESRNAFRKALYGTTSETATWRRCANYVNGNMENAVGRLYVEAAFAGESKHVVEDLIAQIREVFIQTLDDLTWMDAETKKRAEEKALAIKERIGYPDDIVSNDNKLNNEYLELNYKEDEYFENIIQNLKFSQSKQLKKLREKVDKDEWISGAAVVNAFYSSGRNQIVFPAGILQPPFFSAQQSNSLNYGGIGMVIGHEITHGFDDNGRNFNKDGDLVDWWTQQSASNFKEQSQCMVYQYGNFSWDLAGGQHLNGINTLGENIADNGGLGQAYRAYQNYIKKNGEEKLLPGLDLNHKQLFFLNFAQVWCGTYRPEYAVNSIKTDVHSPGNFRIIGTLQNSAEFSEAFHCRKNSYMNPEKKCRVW
T3 sequence (P43220 24-463, species assumed): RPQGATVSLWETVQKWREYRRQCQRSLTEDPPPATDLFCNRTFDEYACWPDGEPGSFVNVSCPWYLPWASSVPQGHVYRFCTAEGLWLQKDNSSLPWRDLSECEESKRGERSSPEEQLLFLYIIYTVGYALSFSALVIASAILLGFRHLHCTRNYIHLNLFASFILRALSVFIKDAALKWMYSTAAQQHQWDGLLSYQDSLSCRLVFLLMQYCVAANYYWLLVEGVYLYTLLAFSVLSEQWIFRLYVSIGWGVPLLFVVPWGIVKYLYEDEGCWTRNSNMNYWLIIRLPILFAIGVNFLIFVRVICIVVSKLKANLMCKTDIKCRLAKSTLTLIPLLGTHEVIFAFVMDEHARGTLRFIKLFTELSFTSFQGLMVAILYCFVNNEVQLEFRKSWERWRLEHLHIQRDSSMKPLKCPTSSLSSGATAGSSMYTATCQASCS

For `CC[C@H](C)[C@H](NC(=O)[C@H](Cc1ccccc1)NC(=O)[C@H](CC(C)C)NC(=O)[C@H](CCCCN)NC(=O)[C@H](C)NC(=O)[C@H](C)NC(=O)[C@H](CCC(N)=O)NC(=O)CNC(=O)[C@H](CCC(=O)O)NC(=O)[C@H](CCC(N)=O)NC(=O)[C@H](Cc1ccc(O)cc1)NC(=O)[C@H](CO)NC(=O)[C@H](CC(C)C)NC(=O)[C@@H](NC(=O)[C@H](CC(=O)O)NC(=O)[C@H](CO)NC(=O)[C@@H](NC(=O)[C@H](Cc1ccccc1)NC(=O)[C@@H](NC(=O)CNC(=O)[C@H]1O[C@H](OC)[C@H](NC(=O)[C@@H](N)Cc2c[nH]cn2)[C@@H](O)[C@@H]1O)[C@@H](C)O)[C@@H](C)O)C(C)C)C(=O)N[C@@H](CCC(=O)O)C(=O)N[C@@H](Cc1c[nH]c2ccccc12)C(=O)N[C@@H](CC(C)C)C(=O)N[C@H](C(=O)N[C@@H](CCCCN)C(=O)NCC(=O)N[C@@H](CCCNC(=N)N)C(N)=O)C(C)C` [Seq ID No. 12] (H-H[X1]GTFTSDVLSYQEGQAAKLFIEWLVKGR-NH2; N-terminus assumed), the “Percentage degradation in hrs” value [1] was 24.93%, the half-life at 20 μM ([1]; pH 8) was over 24 h and the half-life at 20 μM ([2]; 20 μM peptide, 1 mg/ml NEP 24.11, 37° C., 50 mM Hepes, 50 mM NaCl, pH 7.4, RP-HPLC, read-out: T1/2 (converted)) was 27.5 h. For the same compound, the metabolised at 54 h, 20 μM ([2]; isolated NEP 24.11 enzyme (Calbiochem), pH 7.4, NEP 24.11, after 54 hrs, read-out: % Degradation (after 54 hrs)) was 93.5%.
`CC[C@H](C)[C@H](NC(=O)[C@H](Cc1ccccc1)NC(=O)[C@H](CCC(=O)O)NC(=O)[C@H](CCCCN)NC(=O)[C@H](C)NC(=O)[C@H](C)NC(=O)[C@H](CCC(N)=O)NC(=O)CNC(=O)[C@H](CCC(=O)O)NC(=O)[C@H](CC(C)C)NC(=O)[C@H](Cc1ccc(O)cc1)NC(=O)[C@H](CO)NC(=O)[C@H](CO)NC(=O)[C@@H](NC(=O)[C@H](CC(=O)O)NC(=O)[C@H](CO)NC(=O)[C@@H](NC(=O)[C@H](Cc1ccccc1)NC(=O)[C@@H](NC(=O)CNC(=O)c1ccc(CNC(=O)[C@@H](N)Cc2c[nH]cn2)o1)[C@@H](C)O)[C@@H](C)O)C(C)C)C(=O)N[C@@H](C)C(=O)N[C@@H](Cc1c[nH]c2ccccc12)C(=O)N[C@@H](CC(C)C)C(=O)N[C@H](C(=O)N[C@@H](CCCCN)C(=O)NCC(=O)N[C@@H](CCCNC(=N)N)C(N)=O)C(C)C` [Seq ID No. 08] gave an EC50 [3] of 0.601 nM.
Work on `CC[C@H](C)[C@H](NC(=O)[C@H](Cc1ccccc1)NC(=O)[C@H](CCC(=O)O)NC(=O)[C@H](CCCCN)NC(=O)[C@H](C)NC(=O)[C@H](C)NC(=O)[C@H](CCC(N)=O)NC(=O)CNC(=O)[C@H](CCC(=O)O)NC(=O)[C@H](CC(C)C)NC(=O)[C@H](Cc1ccc(O)cc1)NC(=O)[C@H](CO)NC(=O)[C@H](CO)NC(=O)[C@@H](NC(=O)[C@H](CC(=O)O)NC(=O)[C@H](CO)NC(=O)[C@@H](NC(=O)[C@H](Cc1ccccc1)NC(=O)[C@@H](NC(=O)CNC(=O)[C@H](CCC(=O)O)NC(=O)[C@H](C)NC(=O)[C@@H](N)Cc1c[nH]cn1)[C@@H](C)O)[C@@H](C)O)C(C)C)C(=O)N[C@@H](C)C(=O)N[C@@H](Cc1c[nH]c2ccccc12)C(=O)N[C@@H](CC(C)C)C(=O)N[C@H](C(=O)N[C@@H](CCCCN)C(=O)NCC(=O)N[C@@H](CCCNC(=N)N)C(N)=O)C(C)C` [GLP-1(7-36) parent, GLP-1(7-36), reference compound] yielded a metabolised at 54 h, 20 μM ([2]; isolated enzyme neprilysin, pH 7.4, NEP 24.11, after 54 hrs, read-out: % Degradation (after 54 hrs)) of 98.3%.
For `CC[C@H](C)[C@H](NC(=O)[C@H](Cc1ccccc1)NC(=O)[C@H](CCC(=O)O)NC(=O)[C@H](CCCCN)NC(=O)[C@H](C)NC(=O)[C@H](C)NC(=O)[C@H](CCC(N)=O)NC(=O)CNC(=O)[C@H](CCC(=O)O)NC(=O)[C@H](CC(C)C)NC(=O)[C@H](Cc1ccc(O)cc1)NC(=O)[C@H](CO)NC(=O)[C@H](CO)NC(=O)[C@@H](NC(=O)[C@H](CC(=O)O)NC(=O)[C@H](CO)NC(=O)[C@@H](NC(=O)[C@H](Cc1ccccc1)NC(=O)[C@@H](NC(=O)CNC(=O)[C@H]1O[C@H](OC)[C@H](NC(=O)[C@@H](N)Cc2c[nH]cn2)[C@@H](O)[C@@H]1O)[C@@H](C)O)[C@@H](C)O)C(C)C)C(=O)N[C@@H](C)C(=O)N[C@@H](Cc1c[nH]c2ccccc12)C(=O)N[C@@H](CC(C)C)C(=O)N[C@H](C(=O)N[C@@H](CCCCN)C(=O)NCC(=O)N[C@@H](CCCNC(=N)N)C(N)=O)C(C)C` [Seq ID No. 07], the EC50 [3] was 0.056 nM.
For `CC[C@H](C)[C@H](NC(=O)[C@H](Cc1ccccc1)NC(=O)[C@H](CCC(=O)O)NC(=O)[C@H](CCCCN)NC(=O)[C@H](C)NC(=O)[C@H](C)NC(=O)[C@H](CCC(N)=O)NC(=O)CNC(=O)[C@H](CCC(=O)O)NC(=O)[C@H](CC(C)C)NC(=O)[C@H](Cc1ccc(O)cc1)NC(=O)[C@H](CO)NC(=O)[C@H](CO)NC(=O)[C@@H](NC(=O)[C@H](CC(=O)O)NC(=O)[C@H](CO)NC(=O)[C@@H](NC(=O)[C@H](Cc1ccccc1)NC(=O)[C@@H](NC(=O)CNC(=O)[C@H](CCC(=O)O)NC(=O)c1ccc(CNC(=O)[C@@H](N)Cc2c[nH]cn2)o1)[C@@H](C)O)[C@@H](C)O)C(C)C)C(=O)N[C@@H](C)C(=O)N[C@@H](Cc1c[nH]c2ccccc12)C(=O)N[C@@H](CC(C)C)C(=O)N[C@H](C(=O)N[C@@H](CCCCN)C(=O)NC(C)(C)C(=O)N[C@@H](CCCNC(=N)N)C(N)=O)C(C)C` [Seq ID No. 11], the half-life at 20 μM ([1]; 20 μM peptide, 60 mU/2 ml DPP-IV, room temperature (22-24° C.), 20 mM Tris HCl pH 8.0, RP-HPLC, read-out: T1/2 in Hrs) was over 24 h, the “Percentage degradation in hrs” value ([1]; DPP-IV, in 24 hrs) was 20% and the “half life against DPP-IV compared with parent GLP-1 molecules” value ([1]; versus GLP-1(7-37) parent and GLP-1(7-36) parent) was “better half lives than the parent GLP-1 molecules”.
`CC[C@H](C)[C@H](NC(=O)[C@H](Cc1ccccc1)NC(=O)[C@H](CCC(=O)O)NC(=O)[C@H](CCCCN)NC(=O)[C@H](C)NC(=O)[C@H](C)NC(=O)[C@H](CCC(N)=O)NC(=O)CNC(=O)[C@H](CCC(=O)O)NC(=O)[C@H](CC(C)C)NC(=O)[C@H](Cc1ccc(O)cc1)NC(=O)[C@H](CO)NC(=O)[C@H](CO)NC(=O)C(C)(C)NC(=O)[C@H](CC(=O)O)NC(=O)[C@H](CO)NC(=O)[C@@H](NC(=O)[C@H](Cc1ccccc1)NC(=O)[C@@H](NC(=O)CNC(=O)[C@H](CCC(=O)O)NC(=O)c1ccc(CNC(=O)[C@@H](N)Cc2c[nH]cn2)o1)[C@@H](C)O)[C@@H](C)O)C(=O)NC(C)(C)C(=O)N[C@@H](Cc1c[nH]c2ccccc12)C(=O)N[C@@H](CC(C)C)C(=O)N[C@H](C(=O)N[C@@H](CCCCN)C(=O)NCC(=O)N[C@@H](CCCNC(=N)N)C(=O)NCC(N)=O)C(C)C` [Seq ID No. 09] (H-H[2Furoyl(5-aminomethyl)]EGTFTSD[Aib]SSYLEGQAAKEFI[Aib]WLVKGRG-NH2) showed an EC50 [3] of 1 nM.
With `CC[C@H](C)[C@H](NC(=O)[C@H](Cc1ccccc1)NC(=O)[C@H](CCC(=O)O)NC(=O)[C@H](CCCCN)NC(=O)[C@H](C)NC(=O)[C@H](C)NC(=O)[C@H](CCC(N)=O)NC(=O)CNC(=O)[C@H](CCC(=O)O)NC(=O)[C@H](CC(C)C)NC(=O)[C@H](Cc1ccc(O)cc1)NC(=O)[C@H](CO)NC(=O)[C@H](CO)NC(=O)C(C)(C)NC(=O)[C@H](CC(=O)O)NC(=O)[C@H](CO)NC(=O)[C@@H](NC(=O)[C@H](Cc1ccccc1)NC(=O)[C@@H](NC(=O)CNC(=O)[C@H](CCC(=O)O)NC(=O)c1ccc(CNC(=O)[C@@H](N)Cc2c[nH]cn2)o1)[C@@H](C)O)[C@@H](C)O)C(=O)NC(C)(C)C(=O)N[C@@H](Cc1c[nH]c2ccccc12)C(=O)N[C@@H](CC(C)C)C(=O)N[C@H](C(=O)N[C@@H](CCCCN)C(=O)NCC(=O)N[C@@H](CCCNC(=N)N)C(N)=O)C(C)C` [Seq ID No. 04] (H-H[2Furoyl(5-aminomethyl)]EGTFTSD[Aib]SSYLEGQAAKEFI[Aib]WLVKGR-NH2; N-terminus assumed) the “Percentage degradation in hrs” value [1] was 12.87%, the half-life at 20 μM ([1]; pH 8) was over 24 h and the half-life at 20 μM ([2]; pH 7.4) was over 56 h. The metabolised at 54 h, 20 μM ([2]; isolated enzyme neprilysin, pH 7.4) was 26%.

— patent publication US20110269680A1 (PANACEA BIOTEC LIMITED, priority 2008, published 2011)
